Patent publication US8404857B2, “α-crystalline form of carbabenzpyride” (Farmak International Holding GmbH, priority 2010, dated 2013)
Like-named read-outs stand apart in the source and are kept apart here. Marks after values point to notes of the source that are not given here.

Assays:
[1] = system: Influenza A strain New Caledonia (H1N1); type: cell-based; details: NBL-2 cells, MOI 0.01, 24 h
[2] = system: Influenza A strain California (H3N2); type: cell-based; details: Table 9, NBL-2 cells, MOI 0.001, 24 h
[3] = system: Influenza A strain Victoria (H3N2); experiment: Virus yield reduction assay, Influenza A Victoria (H3N2); type: cell-based, Influenza A H3N2 (strain Victoria/3/75); details: Table 10, NBL-2 cells, MOI 0.01, 24 h
Adenovirus 3 = experiment: Virus yield reduction assay, Adenovirus 3; type: cell-based; details: A549 cells, MOI 0.05, 4 days
Adenovirus 5 = experiment: Virus yield reduction assay, Adenovirus 5; type: cell-based; details: A549 cells, MOI 0.05, 4 days
Human metapneumovirus = experiment: Virus yield reduction assay, Human metapneumovirus; type: cell-based; details: MK2 cells, MOI 0.1, 8 days
Enterovirus 71 = experiment: Virus yield reduction assay, Enterovirus 71; type: cell-based; details: HFF, MOI 0.1, 3 days
Coxsackie virus A9 = experiment: Virus yield reduction assay, Coxsackie virus A9; type: cell-based; details: HFF, MOI 0.005, 3 days
Echo virus 11 = experiment: Virus yield reduction assay, Echo virus 11; type: cell-based; details: HFF, MOI 0.005, 3 days
Echo virus 30 = experiment: Virus yield reduction assay, Echo virus 30; type: cell-based; details: HFF, MOI 0.01, 3 days
[4] = system: Human cytomegalovirus Hi91; experiment: Virus yield reduction assay, Human cytomegalovirus Hi91; type: cell-based; details: HFF, MOI 0.02, 5 days
[5] = system: Human cytomegalovirus AD169; experiment: Virus yield reduction assay, Human cytomegalovirus AD169; type: cell-based; details: HFF, MOI 0.02, 5 days
IFN-α = experiment: Circulating IFN-α levels in blood serum of volunteers with acute respiratory infection; type: in vivo, human; details: for IFN-α Mean value / IFN-α Median: blood serum
From the text: (§1) Increase of IFN-α levels was also observed in patients treated with Placebo, yet, this growth was less intensive than in FAV00A group (Table 22).

IFN-γ = experiment: Circulating IFN-γ levels in blood serum of volunteers with acute respiratory infection; type: in vivo, human; details: for IFN-γ Mean value / IFN-γ Median: blood serum
From the text: as §1

blood monocytes = experiment: Blood monocytes level (complete blood counts) of volunteers; type: in vivo, human; details: throughout the study; control group decreased by V3 and V4
From the text: The results of investigating FAV00A effect of body interferon status correlate with the data collected during statistical processing of volunteers' complete blood counts. […] This fact is indicative of limitation of viral infection immunosuppressive effect on cellular immunity responses in FAV00A treatment group.

[6] = Table 8, 400 μg with 45 minutes pre-incubation
[7] = Table 8, 400 μg without pre-incubation
[8] = 7-th day of the drug intake (Visit V3)
[9] = Visit V3 (7-th day of drug intake)

## CC(=O)N[C@H]1[C@H]([C@H](O)[C@H](O)CO)OC(C(=O)O)=C[C@@H]1N=C(N)N [Zanamivir, reference compound]
[1]; Table 8, 10 ng
  % virus yield relative to control: 23%
  Fold reduction: 4.35
  Titer (TCID50/ml): 4.85 * 10^5 TCID50/ml
[1]; Table 11a, 100 ng
  % virus yield relative to control: 3%
  Fold reduction: 33.33
  Titer (TCID50/ml): 7.00 * 10^4 TCID50/ml
[1]; Table 12b, 100 ng
  % virus yield relative to control: 15%
  Fold reduction: 6.67
  Titer (TCID50/ml): 1.42 * 10^6 TCID50/ml
[2]; 100 ng
  % virus yield relative to control: 0.4%
  Fold reduction: 250
  Titer (TCFD50/ml): 1.18 * 10^2 TCFD50/ml
[3]; 100 ng
  % virus yield relative to control: 0.02%
  Fold reduction: 5000
  Titer (TCID50/ml): 7.05 * 10^2 TCID50/ml

## C[n+]1ccc(C(=O)NCc2ccccc2)cc1 [FAV00A, carbabenzpyride]
[1]; [6]
  % virus yield relative to control: 52%
  Fold reduction: 1.92
  Titer (TCID50/ml): 1.10 * 10^6 TCID50/ml
[1]; [7]
  % virus yield relative to control: 31%
  Fold reduction: 3.23
  Titer (TCID50/ml): 6.56 * 10^5 TCID50/ml
[1]; Table 11a, 400 μg
  % virus yield relative to control: 32%
  Fold reduction: 3.13
  Titer (TCID50/ml): 6.81 * 10^3 TCID50/ml
[1]; Table 12b, 800 μg
  % virus yield relative to control: 28%
  Fold reduction: 3.57
  Titer (TCID50/ml): 2.70 * 10^6 TCID50/ml
[2]; 400 μg
  % virus yield relative to control: 76%
  Fold reduction: 1.32
  Titer (TCFD50/ml): 2.25 * 10^4 TCFD50/ml
[2]; 800 μg
  % virus yield relative to control: 61%
  Fold reduction: 1.64
  Titer (TCFD50/ml): 1.80 * 10^4 TCFD50/ml
[3]; 400 μg
  % virus yield relative to control: 41%
  Fold reduction: 2.44
  Titer (TCID50/ml): 1.20 * 10^6 TCID50/ml
[3]; 800 μg
  % virus yield relative to control: 27%
  Fold reduction: 3.70
  Titer (TCID50/ml): 7.75 * 10^5 TCID50/ml
Adenovirus 3; FAV00A 12.5 μg/ml
  Virus titre: 7.2 × 10^7 TCID50/ml
Adenovirus 3; FAV00A 25 μg/ml
  % titre reduction in comparison to virus control: (11.3%)
  Virus titre: 5.4 × 10^7 TCID50/ml
Adenovirus 3; FAV00A 50 μg/ml
  % titre reduction in comparison to virus control: (43.5%)^1
  Virus titre: 3.4 × 10^7 TCID50/ml
Adenovirus 5; FAV00A 12.5 μg/ml
  Virus titre: 7.0 × 10^8 TCID50/ml
Adenovirus 5; FAV00A 25 μg/ml
  % titre reduction in comparison to virus control: (43.7%)
  Virus titre: 3.0 × 10^8 TCID50/ml
Adenovirus 5; FAV00A 50 μg/ml
  % titre reduction in comparison to virus control: (68.4%)^1
  Virus titre: 1.7 × 10^8 TCID50/ml
Human metapneumovirus; FAV00A 125 μg/ml
  % titre reduction in comparison to virus control: (88.5%)
  Virus titre: 4.0 × 10^4 TCID50/ml
Human metapneumovirus; FAV00A 250 μg/ml
  Virus titre: 5.4 × 10^4 TCID50/ml
Human metapneumovirus; FAV00A 500 μg/ml
  % titre reduction in comparison to virus control: (95.6%)^1
  Virus titre: 2.0 × 10^3 TCID50/ml
Enterovirus 71; FAV00A 50 μg/ml
  Virus titre: 5.4 × 10^3 TCID50/ml
Enterovirus 71; FAV00A 100 μg/ml
  % titre reduction in comparison to virus control: (83.6%)
  Virus titre: 6.5 × 10^2 TCID50/ml
Enterovirus 71; FAV00A 200 μg/ml
  % titre reduction in comparison to virus control: (97.6%)^1
  Virus titre: 9.6 × 10^1 TCID50/ml
Coxsackie virus A9; FAV00A 12.5 μg/ml
  % titre reduction in comparison to virus control: (45.3%)
  Virus titre: 1.7 × 10^4 TCID50/ml
Coxsackie virus A9; FAV00A 25 μg/ml
  % titre reduction in comparison to virus control: (45.7%)
  Virus titre: 1.7 × 10^5 TCID50/ml
Coxsackie virus A9; FAV00A 50 μg/ml
  % titre reduction in comparison to virus control: (65.3%)^1
  Virus titre: 1.1 × 10^5 TCID50/ml
Echo virus 11; FAV00A 62.5 μg/ml
  % titre reduction in comparison to virus control: (41.8%)
  Virus titre: 1.8 × 10^8 TCID50/ml
Echo virus 11; FAV00A 125 μg/ml
  % titre reduction in comparison to virus control: (36.4%)
  Virus titre: 1.9 × 10^8 TCID50/ml
Echo virus 11; FAV00A 250 μg/ml
  % titre reduction in comparison to virus control: (79.9%)^1
  Virus titre: 6.1 × 10^7 TCID50/ml
Echo virus 30; FAV00A 25 μg/ml
  Virus titre: 1.2 × 10^8 TCID50/ml
Echo virus 30; FAV00A 50 μg/ml
  % titre reduction in comparison to virus control: (17.0%)
  Virus titre: 7.9 × 10^7 TCID50/ml
Echo virus 30; FAV00A 100 μg/ml
  % titre reduction in comparison to virus control: (68.3%)^1
  Virus titre: 3.0 × 10^7 TCID50/ml
[4]; FAV00A 125 μg/ml
  % titre reduction in comparison to virus control: (24.9%)
[4]; FAV00A 250 μg/ml
  % titre reduction in comparison to virus control: (86.0%)
  Virus titre: 5.2 × 10^3 TCID50/ml
[4]; FAV00A 500 μg/ml
  % titre reduction in comparison to virus control: (93.5%)^1
  Virus titre: 2.4 × 10^3 TCID50/ml
[5]; FAV00A 125 μg/ml
  Virus titre: 2.2 × 10^5 TCID50/ml
[5]; FAV00A 250 μg/ml
  Virus titre: 1.0 × 10^5 TCID50/ml
[5]; FAV00A 500 μg/ml
  % titre reduction in comparison to virus control: (41.1%)^1
  Virus titre: 5.3 × 10^4 TCID50/ml
IFN-α; [8]
  IFN-α levels versus the baseline values and Placebo group: Significant elevation
IFN-α; Visit V1 (baseline)
  IFN-α Mean value: 22.290
  IFN-α Median: 23.7
IFN-α; [9]
  IFN-α Mean value: 37.563*
  IFN-α Median: 37.4*
IFN-α; Visit V4
  IFN-α Mean value: 30.072*
  IFN-α Median: 30.55*
IFN-γ; [8]
  IFN-γ levels versus the baseline values and Placebo group: Significant elevation
IFN-γ; Visit V1 (baseline)
  IFN-γ Mean value: 33.168
  IFN-γ Median: 33.25
IFN-γ; [9]
  IFN-γ Mean value: 44.670*
  IFN-γ Median: 45.85*
IFN-γ; Visit V4
  IFN-γ Mean value: 41.313*
  IFN-γ Median: 40.1*
Blood monocytes
  Change of blood monocytes level: No considerable decrease
